From PMC6332090, “Synthesis and Preliminary Evaluation of N-Oxide Derivatives for the Prevention of Atherothrombotic Events” (Molecules, 2015)
Read-outs that look alike come from different tables or passages of the source. Marks after values point to notes of the source that are not given here.

What was measured:
[1] = system: rat platelet-rich plasma; test: In vitro antiplatelet activity: platelet aggregation in rat platelet-rich plasma (turbidimetric method of Born and Cross); type: cell-based; settings: compounds and ASA at 150 μM, rat PRP, n = 3; for inhibition at 150 µM: Platelet
Method: In vitro antiplatelet activity was evaluated using rat platelet-rich plasma in the presence of ADP (10 μM), arachidonic acid (100 μM) and collagen (5 μg/mL) [15, 16].
Five rats (Wistar; 200–250 g) were previously anesthetized by inhalation of isoflurane using a vaporizing system. Animal breathing was monitored during all procedures. Blood was withdrawn from each rat’s aorta artery and mixed with 3.8% trisodium citrate (9:1 v/v). The animals were then euthanized by deepening of anesthesia. Platelet-rich plasma (PRP) was prepared by centrifugation at 375× g for 10 min at room temperature. The platelet-poor plasma (PPP) was prepared by centrifugation of the pellet at 1800× g for 10 min at room temperature. Platelet aggregation was monitored by the turbidimetric method of Born and Cross [16] using a Chrono-Log aggregometer. PRP (300 μL) was incubated at 37 °C for 1 min with continuous stirring at 900 rpm. ADP (10 μM), type I collagen (5 μg/mL; molecular weight of 115–130 kDa) and arachidonic acid (100 μM) were used to induce platelet aggregation. […] Acetylsalicylic acid (AAS, 150 μM) was used as positive control. The results were expressed as an inhibition percentage. The statistical analysis was performed using ANOVA followed by Tukey’ s test.

[2] = system: mouse pulmonary thromboembolism model; test: In vivo antithrombotic activity: acute pulmonary thromboembolism model induced by collagen-epinephrine mixture; settings: mice; for deaths per group: ten per group, oral 100 µmol/10 g, 15 min after thrombogenic stimulus; for % Protection / Paralyzed or Died Animals/Total: oral single dose 100 µmol/10 g body weight; for % Protection: [1 − (paralyzed + death animals)/total animals] × 100; for Paralyzed or Died Animals/Total: collagen (11 mg/kg) plus epinephrine (0.7 mg/kg) i.v. after 60 min, evaluated 15 min after stimulus
Method: The antithrombotic effects of all compounds (3a,b, 4a,b, 8a,b, 9a,b, 13a,b and 14a,b) were evaluated in vivo using a mouse pulmonary thromboembolism model [18, 19].
In vivo pulmonary thromboembolism was induced in mice according to previously described procedures [18, 19]. Ten Swiss male mice (25−30 g) were used in each test group and the control group. Compounds (3a,b, 4a,b, 8a,b, 9a,b, 13a,b and 14a,b) and acetylsalicylic acid were given orally (100 µmol/10 g, 0.1 mL/10 g) using a 2% carboxymethylcellulose suspension as the vehicle. After 60 min, an intravenous injection of the thrombogenic stimulus containing a mixture of collagen (11 mg/kg) plus epinephrine (0.7 mg/kg) was administered through the tail vein. The dose of the pro-thrombotic mixture was previously characterized using a dose/response curve able to reliably reproduce 80%–90% mortality rate or animal paralysis [15]. The loss of the righting reflex was considered an indication of animal’s paralysis in the control group. The rates of animal survival and paralysis were evaluated 15 min after the administration of the thrombogenic stimulus. After this time, the animals were euthanized using carbon dioxide. […] The protection against acute pulmonary thromboembolism (percentage) was calculated as follows: [1 − (paralyzed + death animals)/total animals] × 100. The chi-square test was used to examine the difference between the control and treated groups.

[3] = system: micronucleated reticulocytes (MNRET) of mice; test: In vivo genotoxicity: micronucleus test in peripheral blood reticulocytes
Method: The genotoxicity induced by 14a was evaluated using the micronucleus test.
Compound 14a (250 mg/kg) and negative control (1% carboxymethylcellulose (CMC) suspension and 0.2% tween; 0.3 mL) were administered to the animals orally. The positive control group received cyclophosphamide (50 mg/kg; i.p.). Groups of 10 Swiss mice of both sexes (25−30 g) were used in each test and control group. After 30 h, the animals were anesthetized using a mixture of ketamine/xylazine (100/10 mg/kg; i.p.), and […] of blood were collected from the tail vein and added to laminas pre-stained with acridine orange. The animals were euthanized via deepening of anesthesia. One thousand reticulocytes per animal were counted, and the frequency of micronucleated cells was registered. […] When p < 0.05, the average values for the treatments were compared using the Tukey method, calculating the minimum significant difference at α = 0.05.

[4] = aggregation induced by ADP 10 μM
[5] = aggregation induced by arachidonic acid 100 μM
[6] = aggregation induced by collagen 5 μg/mL
[7] = aggregation induced by ADP 10 μM, read-out: Platelet Inhibition (%) ADP (10 μM)
[8] = aggregation induced by arachidonic acid 100 μM, read-out: Platelet Inhibition (%) Arachidonic Acid (100 μM)
[9] = aggregation induced by collagen 5 μg/mL, read-out: Platelet Inhibition (%) Collagen (5 μg/mL)

Molecule	Platelet Inhibition (%) ADP (10 μM) [1, 4]	Platelet Inhibition (%) Arachidonic Acid (100 μM) [1, 5] [%]	Platelet Inhibition (%) Collagen (5 μg/mL) [1, 6] [%]	deaths per group [2]	% Protection [2]	Paralyzed or Died Animals/Total [2]	inhibition at 150 µM [1, 7] [%]	inhibition at 150 µM [1, 8] [%]	inhibition at 150 µM [1, 9] [%]	micronucleated reticulocytes (MNRET), frequency in 1000 cells ([3]; mice, positive control 50 mg/kg i.p., blood collected after 30 h, mean ± SD)	micronucleated reticulocytes (MNRET), frequency in 1000 cells ([3]; mouse, in vivo, po, 250 mg/kg)
3-((2-(3-Hydroxybenzoyl)hydrazono)methyl)-4-methyl-1,2,5-oxadiazole 2-oxide [Compound 3a]	10.1 ± 3.3 %	52.6 ± 4.1	17.5 ± 2.7	two	40 * %	6/10					
(E)-3-((2-(4-((2-Acetoxybenzoyl)oxy)benzoyl)hydrazono)methyl)-4-methyl-1,2,5-oxadiazole 2-oxide [Compound 4b]		87.5 ± 2.6	34.5 ± 3.5		50 *^,† %	5/10					
O=C(NN=Cc1c(-c2ccccc2)no[n+]1[O-])c1ccc(O)cc1 [Compound 8b, 3-((2-(4-Hydroxybenzoyl)hydrazono)methyl)-4-phenyl-1,2,5-oxadiazole 2-oxide]				two	40 * %	6/10	9.2 ± 2.8	31.6 ± 3.9	8.8 ± 3.6		
3-((2-(4-Hydroxybenzoyl)hydrazono)methyl)-4-methyl-1,2,5-oxadiazole 2-oxide [Compound 3b]	16.8 ± 2.9 %	47.8 ± 3.7	10.5 ± 3.3	two	30 * %	7/10					
O=P1(N(CCCl)CCCl)NCCCO1 (stereo not drawn) [Cyclophosphamide, reference compound]										41 ± 5	
CC(=O)Oc1ccccc1C(=O)Oc1cccc(C(=O)N/N=C/c2c(-c3ccccc3)no[n+]2[O-])c1 [Compound 9a, (E)-3-((2-(3-((2-Acetoxybenzoyl)oxy)benzoyl)hydrazono)methyl)-4-phenyl-1,2,5-oxadiazole 2-oxide]				two	30 * %	7/10	53.4 ± 2.1	73.4 ± 3.3	43.5 ± 4.7		
O=C(NN=Cc1ccc2c(c1)no[n+]2[O-])c1ccc(O)cc1 [Compound 13b, 5-((2-(4-Hydroxybenzoyl)hydrazono)methyl)benzo[c][1,2,5]oxadiazole 1-oxide]	44.2 ± 5.1 %	57.8 ± 4.9	43.0 ± 3.1		70 *^,† %	3/10					
(E)-3-((2-(3-((2-Acetoxybenzoyl)oxy)benzoyl)hydrazono)methyl)-4-methyl-1,2,5-oxadiazole 2-oxide [Compound 4a]	65.6 ± 2.4 %	70.1 ± 2.9	37.8 ± 4.1	two	40 * %	6/10					
O=C(NN=Cc1c(-c2ccccc2)no[n+]1[O-])c1cccc(O)c1 [Compound 8a, 3-((2-(3-Hydroxybenzoyl)hydrazono)methyl)-4-phenyl-1,2,5-oxadiazole 2-oxide]				two	40 * %	6/10	12.4 ± 3.7	55.1 ± 4.3	21.8 ± 5.1		
CC(=O)Oc1ccccc1C(=O)Oc1ccc(C(=O)N/N=C/c2c(-c3ccccc3)no[n+]2[O-])cc1 [Compound 9b, (E)-3-((2-(4-((2-Acetoxybenzoyl)oxy)benzoyl)hydrazono)methyl)-4-phenyl-1,2,5-oxadiazole 2-oxide]					50 *^,† %	5/10	68.8 ± 1.3	82.7 ± 2.1	47.2 ± 2.9		
CC(=O)Oc1ccccc1C(=O)O [ASA, acetylsalicylic acid, reference compound]	did not inhibit	72.2 ± 3.7		two	30 * %	7/10	0		77.1 ± 3.7		
CC(=O)Oc1ccccc1C(=O)Oc1ccc(C(=O)N/N=C/c2ccc3c(c2)no[n+]3[O-])cc1 [Compound 14b, (E)-5-((2-(4-((2-Acetoxybenzoyl)oxy)benzoyl)hydrazono)methyl)benzo[c][1,2,5]oxadiazole 1-oxide]		79.1 ± 1.9	79.8 ± 3.4		70 *^,† %	3/10					
CC(=O)Oc1ccccc1C(=O)Oc1cccc(C(=O)N/N=C/c2ccc3c(c2)no[n+]3[O-])c1 [Compound 14a, (E)-5-((2-(3-((2-Acetoxybenzoyl)oxy)benzoyl)hydrazono)methyl)benzo[c][1,2,5]oxadiazole 1-oxide]		76.9 ± 3.1	85.3 ± 3.7		80 *^,† %	2/10					< 4
5-((2-(3-Hydroxybenzoyl)hydrazono)methyl)benzo[c][1,2,5]oxadiazole 1-oxide [Compound 13a]	47.1 ± 2.5 %	52.3 ± 3.8	45.1 ± 3.8		70 *^,† %	3/10					
